molecular target: B-Raf (V600E)-kinase (Homo sapiens, UniProt P15056, V600E); assay: Kinase test B-Raf (V600E); type: biochemical; conditions: compound concentration 2 μM; 100% = no inhibition, 0% = total inhibition; read-out: % CTL (residual activity of the enzyme relative to DMSO control)
Experimental: In a dilution series 10 μL of test substance solution are placed in a multiwell plate. The dilution series is selected so that generally a range of concentrations of 2 μM to 0.119 nM or 0.017 nM is covered. If necessary the initial concentration of 2 μM is changed to 50 μM, 10 μM or 0.4 μM or 0.2857 μM and further dilution is carried out accordingly. The final concentration of DMSO is 5%. 10 μL of the B-Raf (V600E)-kinase solution are pipetted in (containing 0.5 ng B-Raf (V600E)-kinase in 20 mM Tris-HCl pH 7.5, 0.1 mM EDTA, 0.1 mM EGTA, 0.286 mM sodium orthovanadate, 10% glycerol, 1 mg/mL bovine serum albumin, 1 mM dithiothreitol) and the mixture is incubated for 1 h at RT under with shaking The kinase reaction is started by the addition of 20 μL ATP solution [final concentration: 250 μM ATP, 30 mM Tris-HCl pH 7.5, 0.02% Brij, 0.2 mM sodium orthovanadate, 10 mM magnesium acetate, 0.1 mM EGTA, phosphatase cocktail (Sigma, # P2850, dilution recommended by the manufacturer), 0.1 mM EGTA] and 10 μL MEK1 solution [containing 50 ng biotinylated MEK1 (prepared from purified MEK1 according to standard procedure, e.g. with EZ-Link Sulpho-NHS-LC-Biotin reagent, Pierce, # 21335) and carried out for 60 min at RT with constant shaking. The reaction is stopped by the addition of 12 μL of a 100 mM EDTA solution and incubation is continued for a further 5 min. 55 μL of the reaction solution are transferred into a streptavidin-coated plate (e.g. Streptawell HighBond, Roche, #11989685001) and shaken gently for 1 h at RT, in order to bind biotinylated MEK1 to the plate. After elimination of the liquid the plate is washed five times with 200 μL of 1×PBS and 100 μL solution of primary antibody plus europium-labelled secondary antibody [Anti Phospho-MEK (Ser217/221), Cell Signaling, # 9121 and Eu-N1 labeled goat-anti-rabbit antibody, Perkin Elmer, #AD0105], the primary antibody is diluted 1:2000 and the secondary antibody is diluted to 0.4-0.5 μg/mL in Delfia Assay Buffer (Perkin Elmer, #1244-111). After 1 h shaking at RT the solution is poured away and washed five times with 200 μL Delfia Wash Buffer (Perkin Elmer, #4010-0010/#1244-114). After the addition of 200 μL Enhancement Solution (Perkin Elmer, #4001-0010/#1244-105) the mixture is shaken for 10 min at RT and then measured in a Wallac Victor using the program “Delfia Time Resolved Fluorescence (Europium)”. IC50 values are obtained from these dosage-activity curves using a software program (GraphPadPrizm).
A value of 100% indicates no inhibition while a value of 0% indicates total inhibition. The % CTL values denote the residual activity of the enzyme after the addition of the inhibitory compound in the solvent DMSO in relation to the enzyme activity in the solvent DMSO without the addition of a compound (control). The values were determined using the B-Raf(V600E)-kinase test described above.

B-Raf (V600E)-kinase, sequence (P15056 whole entry V600E): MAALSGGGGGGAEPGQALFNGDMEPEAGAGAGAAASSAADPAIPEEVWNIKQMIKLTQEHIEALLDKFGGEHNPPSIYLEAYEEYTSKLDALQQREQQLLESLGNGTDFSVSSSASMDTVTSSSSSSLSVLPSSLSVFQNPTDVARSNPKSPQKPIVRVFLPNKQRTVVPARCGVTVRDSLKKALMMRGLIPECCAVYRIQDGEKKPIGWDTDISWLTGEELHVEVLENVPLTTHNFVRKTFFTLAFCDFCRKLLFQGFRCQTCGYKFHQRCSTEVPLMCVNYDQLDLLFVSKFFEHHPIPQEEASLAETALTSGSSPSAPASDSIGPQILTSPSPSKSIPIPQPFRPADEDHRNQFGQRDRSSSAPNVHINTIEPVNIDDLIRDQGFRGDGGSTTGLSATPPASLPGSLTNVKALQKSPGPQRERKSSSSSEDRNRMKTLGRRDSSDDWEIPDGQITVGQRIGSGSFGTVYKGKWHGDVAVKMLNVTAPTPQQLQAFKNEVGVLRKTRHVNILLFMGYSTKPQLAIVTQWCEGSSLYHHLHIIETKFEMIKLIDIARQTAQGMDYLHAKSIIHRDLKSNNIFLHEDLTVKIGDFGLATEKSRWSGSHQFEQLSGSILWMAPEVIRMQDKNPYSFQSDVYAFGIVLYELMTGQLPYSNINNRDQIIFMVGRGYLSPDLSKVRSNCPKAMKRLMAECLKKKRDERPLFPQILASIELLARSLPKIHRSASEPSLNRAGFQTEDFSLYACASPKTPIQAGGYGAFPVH

remaining activity at 2 µM | Structure (SMILES)
5.5% | Cc1ncc(C(=O)Nc2cc(N3CCN(C(C)C)CC3)cc(C(F)(F)F)c2)cc1-n1cc(-c2cnn(C)c2C)nn1 [Example I-58]
13.4% | CCN1CCN(c2cc(NC(=O)c3cnc(C)c(-n4cc(-c5cnn(C)c5C)nn4)c3)cc(C(F)(F)F)c2)CC1 [Example I-59]
7.2% | Cc1ncc(C(=O)Nc2cc(N(C)CCN(C)C)cc(C(F)(F)F)c2)cc1-n1cc(-c2cnn(C)c2C)nn1 [Example I-60]
8.1% | Cc1ncc(C(=O)Nc2cc(N3CCOCC3)c(C)c(C(F)(F)F)c2)cc1-n1cc(-c2cnn(C)c2C)nn1 [Example I-61]
2.8% | Cc1ncc(C(=O)Nc2cc(Br)cc(C(F)(F)F)c2)cc1-n1cc(-c2cnn(C)c2C)nn1 [Example I-62]
4.6% | Cc1ncc(C(=O)Nc2cc(N3CC[C@H](N(C)C)C3)c(C)c(C(F)(F)F)c2)cc1-n1cc(-c2cnn(C)c2C)nn1 [Example I-63]
6.6% | COc1ccc(NC(=O)c2cnc(C)c(-n3cc(-c4cncnc4)nn3)c2)cc1C(F)(F)F [Example I-64]
7.1% | Cc1ncc(C(=O)Nc2cc(N3CC[C@@H](N(C)C)C3)c(C)c(C(F)(F)F)c2)cc1-n1cc(-c2cnn(C)c2C)nn1 [Example I-65]
6.4% | Cc1ncc(C(=O)Nc2cc(N3CCCCC3)c(C)c(C(F)(F)F)c2)cc1-n1cc(-c2cnn(C)c2C)nn1 [Example I-66]
2.9% | Cc1ncc(C(=O)Nc2cc(N3CCN(C)CC3)c(C)c(C(F)(F)F)c2)cc1-n1cc(-c2cncnc2)nn1 [Example I-67]
4.7% | CCNc1cc(NC(=O)c2cnc(C)c(-n3cc(-c4cnn(C)c4C)nn3)c2)cc(C(F)(F)F)c1C [Example I-68]
2.8% | Cc1ncc(C(=O)Nc2cc(N3CCOCC3)cc(C(F)(F)F)c2)cc1-n1cc(-c2cnn(C)c2C)nn1 [Example I-69]
5.5% | Cc1ncc(C(=O)Nc2cc(N(C)CCN(C)C)c(C)c(C(F)(F)F)c2)cc1-n1cc(-c2cnn(C)c2C)nn1 [Example I-71]
5.1% | Cc1ncc(C(=O)Nc2cc(CN3CCCC3)cc(C(F)(F)F)c2)cc1-n1cc(-c2cncnc2)nn1 [Example I-72]
1.7% | CCN(CC)c1cc(NC(=O)c2cnc(C)c(-n3cc(-c4cnn(C)c4C)nn3)c2)cc(C(F)(F)F)c1 [Example I-73]
9% | Cc1ncc(C(=O)Nc2cc(N3CCCCC3)cc(C(F)(F)F)c2)cc1-n1cc(-c2cnn(C)c2C)nn1 [Example I-74]
7.3% | CCNc1cc(NC(=O)c2cnc(C)c(-n3cc(-c4cnn(C)c4C)nn3)c2)cc(C(F)(F)F)c1 [Example I-75]
1.9% | Cc1ncc(C(=O)Nc2cc(N3CC[C@H](N(C)C)C3)cc(C(F)(F)F)c2)cc1-n1cc(-c2cnn(C)c2C)nn1 [Example I-77]
2.8% | Cc1ncc(C(=O)Nc2cc(NCCN(C)C)cc(C(F)(F)F)c2)cc1-n1cc(-c2cnn(C)c2C)nn1 [Example I-78]
3.6% | Cc1cn(-c2cc(NC(=O)c3cnc(C)c(-n4cc(-c5cncnc5)nn4)c3)cc(C(F)(F)F)c2)cn1 [Example I-79]
1.9% | Cc1ncc(C(=O)Nc2cc(C(C)(C)C)on2)cc1-n1cc(-c2cccnc2)nn1 [Example I-80]
1.2% | Cc1ncc(C(=O)Nc2cc(C(F)(F)F)ccn2)cc1-n1cc(-c2cncs2)nn1 [Example I-81]
1.6% | Cc1ncc(C(=O)Nc2cc(C(C)(C)C)on2)cc1-n1cc(-c2cncs2)nn1 [Example I-82]

remaining activity at 2 µM | Structure (SMILES)
1.1% | Cc1ncc(C(=O)Nc2cc(C(C)(C)C)n[nH]2)cc1-n1cc(-c2cncs2)nn1 [Example I-83]
2.4% | COc1cncc(-c2cn(-c3cc(C(=O)Nc4cc(C(C)(C)C)n[nH]4)cnc3C)nn2)c1 [Example I-84]
1.1% | COc1cncc(-c2cn(-c3cc(C(=O)Nc4cc(OC(F)(F)F)cc(N5CCN(C)CC5)c4)cnc3C)nn2)c1 [Example I-85]
1.4% | Cc1ncc(C(=O)Nc2cc(C3CCN(C)CC3)cc(C(F)(F)F)c2)cc1-n1cc(-c2cnn(C)c2C)nn1 [Example I-86]
1.7% | Cc1ncc(C(=O)Nc2cc(C3=CCN(C)CC3)cc(C(F)(F)F)c2)cc1-n1cc(-c2cnn(C)c2C)nn1 [Example I-87]
1.3% | Cc1ncc(C(=O)Nc2cc(C3=CCNCC3)cc(C(F)(F)F)c2)cc1-n1cc(-c2cnn(C)c2C)nn1 [Example I-88]
1.5% | COc1ccc(NC(=O)c2cnc(C)c(-n3cc(-c4cncs4)nn3)c2)cc1C(F)(F)F [Example I-89]
2.1% | COc1cncc(-c2cn(-c3cc(C(=O)Nc4cc(CN5CCCC5)c(Cl)c(C(F)(F)F)c4)cnc3C)nn2)c1 [Example I-90]
2.5% | COc1cncc(-c2cn(-c3cc(C(=O)Nc4cc(CN5CCCC5)cc(C(F)(F)F)c4)cnc3C)nn2)c1 [Example I-91]
2.5% | COc1cncc(-c2cn(-c3cc(C(=O)Nc4ccc(OC)c(C(F)(F)F)c4)cnc3C)nn2)c1 [Example I-92]
3.5% | Cc1ncc(C(=O)Nc2cc(CN(C)C)c(C)c(C(F)(F)F)c2)cc1-n1cc(-c2cnn(C)c2C)nn1 [Example I-93]
3.5% | COCCN(C)Cc1cc(NC(=O)c2cnc(C)c(-n3cc(-c4cnn(C)c4C)nn3)c2)cc(C(F)(F)F)c1C [Example I-94]
3.1% | COc1c(CNCC(C)C)cc(NC(=O)c2cnc(C)c(-n3cc(-c4cnn(C)c4C)nn3)c2)cc1C(F)(F)F [Example I-95]
3.4% | COCCN(C)Cc1cc(NC(=O)c2cnc(C)c(-n3cc(-c4cnn(C)c4C)nn3)c2)cc(C(F)(F)F)c1OC [Example I-96]
3.3% | CCN1CC=C(c2cc(NC(=O)c3cnc(C)c(-n4cc(-c5cnn(C)c5C)nn4)c3)cc(C(F)(F)F)c2C)CC1 [Example I-97]
3% | Cc1ncc(C(=O)Nc2cc(C3=CCN(CC4CC4)CC3)c(C)c(C(F)(F)F)c2)cc1-n1cc(-c2cnn(C)c2C)nn1 [Example I-98]
1.9% | CCC(C)N1CC=C(c2cc(NC(=O)c3cnc(C)c(-n4cc(-c5cnn(C)c5C)nn4)c3)cc(C(F)(F)F)c2C)CC1 (stereo not shown) [Example I-99]
3% | Cc1ncc(C(=O)Nc2cc(C(F)(F)F)cc(Br)c2C)cc1-n1cc(-c2cnn(C)c2C)nn1 [Example I-100]
4.6% | COc1c(CN(C)C)cc(C(F)(F)F)cc1NC(=O)c1cnc(C)c(-n2cc(-c3cnn(C)c3C)nn2)c1 [Example I-102]
3.8% | COc1c(CNC(C)C)cc(NC(=O)c2cnc(C)c(-n3cc(-c4cnn(C)c4C)nn3)c2)cc1C(F)(F)F [Example I-103]
2.1% | COc1c(CN2CCCC2)cc(C(F)(F)F)cc1NC(=O)c1cnc(C)c(-n2cc(-c3cnn(C)c3C)nn2)c1 [Example I-104]
1.3% | Cc1ncc(C(=O)Nc2cc(CN(C)C)cc(C(F)(F)F)c2)cc1-n1cc(-c2cnn(C)c2C)nn1 [Example I-106]
1.6% | Cc1ncc(C(=O)Nc2cc(CNC(C)C)cc(C(F)(F)F)c2)cc1-n1cc(-c2cnn(C)c2C)nn1 [Example I-107]

same assay, conditions: measurement at 1.43 μM (***); 100% = no inhibition, 0% = total inhibition; read-out: % CTL (residual activity of the enzyme relative to DMSO control)

remaining activity at 1.43 µM | Structure (SMILES)
2% | Cc1ncc(C(=O)Nc2cc(N3CC[C@@H](N(C)C)C3)cc(C(F)(F)F)c2)cc1-n1cc(-c2cnn(C)c2C)nn1 [Example I-76]
1.3% | Cc1ncc(C(=O)Nc2cc(C(F)(F)F)cc(N3CCN(C)CC3)c2C)cc1-n1cc(-c2cnn(C)c2C)nn1 [Example I-101]
2% | COc1c(CNCC(C)C)cc(C(F)(F)F)cc1NC(=O)c1cnc(C)c(-n2cc(-c3cnn(C)c3C)nn2)c1 [Example I-105]

Reference: US8778929B2, “Substituted heteroaryl inhibitors of B-RAF” (Boehringer Ingelheim International GmbH, priority 2008, dated 2014)
